Data from paper PMC4902181 (Journal of medicinal chemistry, 2015).
Entries after “also recorded” stand apart in the source; their conditions may differ.

Experiments:
[1] = Human liver microsomal stability; format: in vitro ADME; settings: compound 10 µM, 30 min incubation
[2] = Rat liver microsomal stability; format: in vitro ADME; settings: compound 10 µM, 30 min incubation
[3] = 30 min incubation; cited from earlier work
[4] = system: lipofuscin bisretinoids; settings: chronic oral administration, Abca4−/− mouse; cited from earlier work
[5] = system: serum RBP4; settings: chronic oral administration, Abca4−/− mouse; cited from earlier work
[6] = molecular target: RBP4 (Homo sapiens, UniProt P02753); assay: RBP4 scintillation proximity assay; format: binding
[7] = molecular target: RBP4-TTR interaction (Homo sapiens, UniProt P02753); assay: HTRF retinol-dependent RBP4-TTR interaction assay; format: biochemical; settings: read-out: RBP4 HTRF IC50; 1 µM retinol
[8] = molecular target: CYP2C9 (Homo sapiens, UniProt P11712); settings: read-out: CYP2C9 inhibitory activity IC50; cited from earlier work
[9] = system: serum RBP4; settings: acute and chronic rodent oral dosing; cited from earlier work
[10] = molecular target: hERG channel (Homo sapiens, UniProt Q12809); assay: Patch-Xpress patch-clamp hERG assay; format: cell-based
[11] = system: MDCK-MDR1; assay: MDR1-MDCK permeability assay; format: in vitro ADME
[12] = system: panel of fifty-five GPCRs, enzymes, ion channels, and transporters; assay: Standard off-target screening panel; settings: data not shown
[13] = molecular target: T1, human PXR (Homo sapiens, UniProt O75469); assay: Human PXR activation; settings: data not shown
T1 sequence (O75469 1-434): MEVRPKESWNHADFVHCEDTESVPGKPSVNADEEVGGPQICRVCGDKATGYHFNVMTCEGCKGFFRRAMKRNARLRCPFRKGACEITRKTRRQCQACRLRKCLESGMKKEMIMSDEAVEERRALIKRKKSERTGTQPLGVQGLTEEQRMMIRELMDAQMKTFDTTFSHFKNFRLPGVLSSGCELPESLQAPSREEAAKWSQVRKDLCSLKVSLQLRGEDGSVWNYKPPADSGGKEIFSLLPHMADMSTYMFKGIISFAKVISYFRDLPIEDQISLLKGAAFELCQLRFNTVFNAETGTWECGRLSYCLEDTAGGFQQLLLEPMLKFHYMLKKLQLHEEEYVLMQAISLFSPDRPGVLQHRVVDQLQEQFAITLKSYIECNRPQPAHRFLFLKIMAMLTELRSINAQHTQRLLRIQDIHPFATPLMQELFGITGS

[14] = Single dose IV and PO PK in rats; format: in vivo; settings: Sprague-Dawley, rat, plasma, 2 mg/kg

hERG channel, sequence (Q12809 whole entry): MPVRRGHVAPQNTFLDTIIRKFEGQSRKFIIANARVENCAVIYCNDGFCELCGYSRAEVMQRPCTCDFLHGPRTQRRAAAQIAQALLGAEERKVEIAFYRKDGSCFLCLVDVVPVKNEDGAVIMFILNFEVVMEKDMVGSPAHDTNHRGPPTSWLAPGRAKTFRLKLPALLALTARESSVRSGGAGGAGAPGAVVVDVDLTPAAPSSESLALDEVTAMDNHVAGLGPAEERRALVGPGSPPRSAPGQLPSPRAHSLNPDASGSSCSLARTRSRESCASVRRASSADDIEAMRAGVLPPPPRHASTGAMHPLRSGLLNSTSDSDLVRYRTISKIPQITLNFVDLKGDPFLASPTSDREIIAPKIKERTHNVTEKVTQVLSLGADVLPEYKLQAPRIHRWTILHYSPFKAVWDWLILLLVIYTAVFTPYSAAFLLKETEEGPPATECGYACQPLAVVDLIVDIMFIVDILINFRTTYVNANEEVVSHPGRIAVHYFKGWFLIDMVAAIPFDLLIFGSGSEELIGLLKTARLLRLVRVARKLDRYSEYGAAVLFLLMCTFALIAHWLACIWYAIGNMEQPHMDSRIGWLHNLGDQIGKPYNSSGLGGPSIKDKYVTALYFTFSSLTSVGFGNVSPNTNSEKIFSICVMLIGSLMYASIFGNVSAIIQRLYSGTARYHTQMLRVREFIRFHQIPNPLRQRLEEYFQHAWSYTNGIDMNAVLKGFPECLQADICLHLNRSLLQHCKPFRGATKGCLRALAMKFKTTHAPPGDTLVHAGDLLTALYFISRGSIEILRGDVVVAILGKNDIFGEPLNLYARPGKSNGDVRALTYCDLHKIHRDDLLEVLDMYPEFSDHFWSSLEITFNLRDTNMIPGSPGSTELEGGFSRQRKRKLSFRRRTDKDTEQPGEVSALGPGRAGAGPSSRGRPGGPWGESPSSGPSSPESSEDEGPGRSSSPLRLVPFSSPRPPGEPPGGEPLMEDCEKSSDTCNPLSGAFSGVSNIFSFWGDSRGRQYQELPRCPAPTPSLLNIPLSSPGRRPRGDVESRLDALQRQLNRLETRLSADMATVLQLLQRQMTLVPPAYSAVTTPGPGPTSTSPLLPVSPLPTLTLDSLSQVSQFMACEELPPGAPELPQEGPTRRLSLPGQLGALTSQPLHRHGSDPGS
CYP2C9, sequence (P11712 whole entry): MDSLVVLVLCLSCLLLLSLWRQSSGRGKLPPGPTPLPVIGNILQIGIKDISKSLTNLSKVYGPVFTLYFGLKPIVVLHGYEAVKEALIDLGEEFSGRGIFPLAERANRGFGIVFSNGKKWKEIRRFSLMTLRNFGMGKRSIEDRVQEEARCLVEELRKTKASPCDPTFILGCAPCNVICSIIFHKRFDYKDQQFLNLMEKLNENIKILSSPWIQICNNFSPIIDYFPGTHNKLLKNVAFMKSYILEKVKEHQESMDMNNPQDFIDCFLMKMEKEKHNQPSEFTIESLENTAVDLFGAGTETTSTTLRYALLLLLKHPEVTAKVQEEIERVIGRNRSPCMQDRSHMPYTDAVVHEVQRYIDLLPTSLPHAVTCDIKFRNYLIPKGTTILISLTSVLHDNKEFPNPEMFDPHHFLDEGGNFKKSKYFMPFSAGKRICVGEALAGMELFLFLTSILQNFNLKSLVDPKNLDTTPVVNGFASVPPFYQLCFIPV

Row | microsomal stability (% remaining) HLM [1] [% remaining] | microsomal stability (% remaining) RLM [2] [% remaining] | SMILES | other results
1 | 3 | 85 | O=C(O)c1ccccc1NC(=O)N1CCC(c2ccccc2C(F)(F)F)CC1 [Compound 3, A1120, reference compound] | HLM stability (% remaining) [3]: ~ 3 % remaining; reduction of accumulation of lipofuscin bisretinoids [4]: approximately 50%; reduction in serum RBP4 [5]: 75%
2 | 68 | 96 | Cc1cc(C(=O)O)nc(N2CCC(c3ccccc3C(F)(F)F)CC2)n1 [Compound 10, 6-Methyl-2-(4-(2-(trifluoromethyl)phenyl)piperidin-1-yl)-pyrimidine-4-carboxylic Acid] | 
3 | 0.0 | 0.0 | COC(=O)c1cc(C)nc(N2CCN(c3ccccc3C(F)(F)F)CC2)n1 [Compound 13, methyl 6-methyl-2-(4-(2-(trifluoromethyl)phenyl)piperazin-1-yl)-pyrimidine-4-carboxylate] | 
4 | 18 | 63 | Cc1cc(C(=O)O)nc(N2CCN(c3ccccc3C(F)(F)F)CC2)n1 [Compound 14, 6-Methyl-2-(4-(2-(trifluoromethyl)phenyl)piperazin-1-yl)-pyrimidine-4-carboxylic Acid] | 
5 | 80 | 76 | Cc1cc(C(=O)O)nc(N2C[C@@H]3CN(c4ccccc4C(F)(F)F)C[C@@H]3C2)n1 [Compound 18, 6-Methyl-2-((3aR,6aS)-5-(2-(trifluoromethyl)phenyl)hexahydropyrrolo[3,4-c]pyrrol-2(1H)-yl)pyrimidine-4-carboxylic Acid] | 
6 | 0.2 | 9.8 | COC(=O)c1cc(C)nc(N2C[C@H]3C[C@@H](c4ccccc4C(F)(F)F)C[C@H]3C2)n1 [Compound 28, Methyl 6-Methyl-2-((3aR,5r,6aS)-5-(2-(trifluoromethyl)phenyl)-hexahydrocyclopenta[c]pyrrol-2(1H)-yl)pyrimidine-4-carboxylate] | 
7 | 94 | 93 | Cc1cc(C(=O)O)nc(N2C[C@H]3C[C@@H](c4ccccc4C(F)(F)F)C[C@H]3C2)n1 [Compound 33, 6-Methyl-2-((3aR,5r,6aS)-5-(2-(trifluoromethyl)phenyl)-hexahydrocyclopenta[c]pyrrol-2(1H)-yl)pyrimidine-4-carboxylic Acid] | off-target activity at the hERG channel [10]: no significant off-target activity; MDCK-MDR1 permeability class [11]: highly permeable; also recorded: high permeability; off-target activity in screening panel [12]: no significant off-target activity; human PXR activation [13]: did not induce human PXR activation; clearance [14]: 5.06 mL/h/kg
8 |  |  | Cc1cc(C(=O)O)nc(N2C[C@H]3C[C@H](c4ccccc4C(F)(F)F)C[C@H]3C2)n1 [Compound 40, 6-Methyl-2-((3aR,5s,6aS)-5-(2-(trifluoromethyl)phenyl)-hexahydrocyclopenta[c]pyrrol-2(1H)-yl)pyrimidine-4-carboxylic Acid] | RBP4 activity [6]: devoid of RBP4 activity
9 |  |  | O=C(O)c1cncc(N2C[C@H]3C[C@@H](c4ccccc4C(F)(F)F)C[C@H]3C2)c1 [Compound 51, 5-((3aR,5r,6aS)-5-(2-(Trifluoromethyl)phenyl)hexahydrocyclopenta[c]pyrrol-2(1H)-yl)nicotinic Acid] | RBP4 activity [6]: devoid of RBP4 activity

Row | SMILES | microsomal stability (% remaining) HLM [1] [% remaining] | microsomal stability (% remaining) RLM [2] [% remaining] | other results
10 | O=C(O)c1ccccc1NC(=O)N1C[C@H]2C[C@@H](c3ccccc3C(F)(F)F)C[C@H]2C1 [Compound 4, 2-((3aR,5r,6aS)-5-(2-(trifluoromethyl)phenyl)octahydrocyclopenta[c]pyrrole-2-carboxamido)benzoic acid] | 100 | 75 | IC50 ([6]; read-out: RBP4 SPA IC50, fixed 10 nM 3H-retinol): 72.7 nM; IC50 [7]: 294 nM; HLM stability (% remaining) [3]: 100 % remaining; IC50 [8]: 340 nM; lowering of serum RBP4 levels [9]: > 85%
